From patent publication US11434227B2, “Broad spectrum antibacterial activity of novel bisbenzimidazoles targeting topoisomerase IA and the synergistic composition of bisbenzimidazole with efflux pump inhibitors against pathogenic bacteria” (Jawaharlal Nehru University (JNU), priority 2016, dated 2022)
Converted amounts (≈) assume the structure as drawn.

Key:
[1] = tested on: efflux and porin genes (acrAB-tolC, emrAB-tolC, ompC, ompF) in E. coli K12 cells; experiment: Gene expression analysis by real-time qPCR; type: cell-based, Escherichia coli; details: E. coli K12 cells treated with ¼ MIC
E. coli 85^R = experiment: Susceptibility (MIC, PAE, MBC), broth microdilution; details: Escherichia coli
Protocol: (§1) MICs were determined by the broth microdilution method according to CLSI methods (Clinical and Laboratory Standards Institute, 2005). Inoculants were incubated at 37° C. on cation adjusted Mueller Hinton (MH) Broth for 18 to 24 h. Compound were dissolved in media to 10 doubling dilutions from 128 to 0.125 μg/mL. All the bacterial strains were grown in 96 well plate with low evaporation lid (Falcon, Becton Dickinson) in presence of derivatives of benzimidazoles at 0.125, 0.25, 0.5, 1, 2, 4, 8, 16, 32, 64, 128, 256 μg/mL concentrations. […] Plates were read by Tecan Micro-plate Reader at 600 nm.

[2] = tested on: K. planticola (MTCC 2272); experiment: HN12b in combination with efflux pump inhibitors (CB method, FICI)
Protocol: (§2) 96-well microtiter plates containing MIC25 concentrations of the Efflux pump inhibitor (CCCP, PAβN) and HN12b antimicrobial drugs alone and in CB combination were used. The MICs of the individual drugs HN12b, PAβN and CCCP (0.25 to 128 μg/ml) and of the combinations were determined using the broth microdilution technique as recommended by the CLSI. Briefly, the broth microdilution plates were inoculated with each test organism to yield the appropriate density (10^5 CFU/ml) in 100 μl Mueller-Hinton broth (MHB) and incubated for 24 h at 37° C. in ambient air. One well with no antibiotic was used as a positive growth control on each plate. Plates were read for visual turbidity, and results were recorded after 24 h of incubation at 37° C. in ambient air by using a magnifying mirror reader, as turbidity in wells indicated growth of the microorganism. The MIC was determined as the well in the microtiter plate with the lowest drug concentration at which there was no visible growth. […] MICAB was defined as the MIC of drug A in the presence of drug B; MICBA was defined as the MIC of drug B in the presence of drug A.
(§3) The fractional inhibitory concentration index (FICI) was calculated for each antibiotic in each combination by using the following formula: FICA+FICB=FICI, where FICA equals the MIC of drug A in combination divided by the MIC of drug A alone and FICB equals the MIC of drug B in combination divided by the MIC of drug B alone. The FICIs were interpreted as follows: FICI of ≤0.5 will correspond to synergy; FICI of >0.5 to ≤1 will correspond to additivity; FICI of >1 to ≤4 will correspond to no interaction (indifference), and FICI of >4 will correspond antagonism.

E. coli 360^R = experiment: Susceptibility (MIC, PAE, MBC), broth microdilution; details: Escherichia coli
Protocol: as §1

E. coli 151^R = experiment: as above; details: Escherichia coli
Protocol: as §1

[3] = tested on: Providencia sp. (MTCC 2102); experiment: HN12b in combination with efflux pump inhibitors (CB method, FICI); details: for FICI: Providencia sp. (MTCC 2102)
Protocol: as §2, §3

[4] = tested on: Klebsiella planticola (K589); experiment: Susceptibility (MIC50/MIC90), broth microdilution
Protocol: as §1

[5] = tested on: Salmonella typhimurium (MTCC 1251); experiment: Susceptibility (MIC50/MIC90), broth microdilution; details: Salmonella enterica
Protocol: as §1

[6] = tested on: Shigella flexineri (MTCC1457); experiment: Susceptibility (MIC50/MIC90), broth microdilution; type: cell-based
[7] = tested on: E. coli K12 mutant ΔTopIA; experiment: Susceptibility of E. coli K12 and mutants (MIC90); details: Escherichia coli
Protocol: as §1

A. baumannii (MTCC1920) = experiment: HN12b in combination with efflux pump inhibitors (CB method, FICI)
Protocol: as §2, §3

Enterococcus sp. (1121) = experiment: as above
Protocol: as §2, §3

[8] = tested on: Escherichia coli (ATCC 25922); experiment: Susceptibility (MIC, PAE, MBC), broth microdilution; details: Escherichia coli
Protocol: as §1

[9] = tested on: Klebsiella planticola (K1164); experiment: Susceptibility (MIC50/MIC90), broth microdilution
Protocol: as §1

Enterococcus sp. (2105) = experiment: Susceptibility (MIC50/MIC90), broth microdilution
Protocol: as §1

P. aeruginosa (MTCC1688) = experiment: HN12b in combination with efflux pump inhibitors (CB method, FICI)
Protocol: as §2, §3

[10] = K. planticola (MTCC 2272), HN12b + CCCP
[11] = A. baumannii (MTCC1920), HN12b + CCCP
[12] = Enterococcus sp. (1121), HN12b + CCCP
[13] = ATCC25922, Escherichia coli (ATCC 25922), Table 2
[14] = P. aeruginosa (MTCC1688), HN12b + CCCP

In the case of `CCCN1CCN(c2nc3ccc(-c4nc5ccccc5[nH]4)cc3[nH]2)CC1` [HN12b, 2′-(4-propylpiperazine-1-yl)-1H, 3′H-2,5′-bibenzimidazole], the “gene expression of efflux pumps and porins” value [1] is reported as “acrAB-tolC and emr AB-tolC activation and ompC and ompF down-regulation”, the MBC (E. coli 85^R) is reported as 2 µg/mL (≈ 5.55 µM) and the MIC50 (E. coli 85^R) is reported as 1 µg/mL (≈ 2.77 µM). The MIC90 (E. coli 85^R) was 1.7 µg/mL (≈ 4.72 µM), the FICI [2, 10] was 0.5 and the Interpretation [2, 10] was “Synergy (FICI of ≤0.5 will correspond to synergy)”. It also gave an FICI ([2]; K. planticola (MTCC 2272), HN12b + PAβN) of 1, an MIC90 ([2]; Klebsiella planticola, MTCC2272) greater than 128 µg/mL and an MBC (E. coli 360^R) of 2 µg/mL (≈ 5.55 µM). The MIC50 (E. coli 360^R) was 1 µg/mL (≈ 2.77 µM), the MIC90 (E. coli 360^R) was 1.6 µg/mL (≈ 4.44 µM) and the MBC (E. coli 151^R) was 2 µg/mL (≈ 5.55 µM). For the same compound, the MIC50 (E. coli 151^R) was 1 µg/mL (≈ 2.77 µM), the MIC90 (E. coli 151^R) was 1.7 µg/mL (≈ 4.72 µM) and the FICI ([3]; HN12b + CCCP) was 0.6. The FICI ([3]; HN12b + PAβN) was 1, the MIC90 ([3]; Providencia, MTCC2102) was greater than 128 µg/mL and the MIC50 [4] was 7.4 µg/mL (≈ 20.5 µM). The MIC90 [4] was 97.4 µg/mL (≈ 270 µM), the MIC50 [5] was less than 0.25 µg/mL and the MIC90 [5] was less than 0.25 µg/mL. It also gave an MIC50 [6] of 1.22 µg/mL (≈ 3.38 µM), an MIC90 [6] of 1.22 µg/mL (≈ 3.38 µM) and an MIC90 [7] of 2.8 µg/mL (≈ 7.77 µM). For the same compound, the FICI (A. baumannii (MTCC1920); [11]) was 0.5, the Interpretation (A. baumannii (MTCC1920); [11]) was “Synergy (FICI of ≤0.5 will correspond to synergy)” and the FICI (A. baumannii (MTCC1920); A. baumannii (MTCC1920), HN12b + PAβN) was 0.9. It also gave an MIC90 (A. baumannii (MTCC1920); Acinetobacter baumannii, MTCC1920) greater than 128 µg/mL, an MIC90 (Enterococcus sp. (1121); Enterococcus) of 8 µg/mL and an FICI (Enterococcus sp. (1121); [12]) of 0.5. The Interpretation (Enterococcus sp. (1121); [12]) was “Synergy (FICI of ≤0.5 will correspond to synergy)”, the FICI (Enterococcus sp. (1121); Enterococcus sp. (1121), HN12b + PAβN) was 1 and the MBC ([8]; ATCC25922) was 4 µg/mL (≈ 11.1 µM). The MIC50 ([8]; ATCC25922, ATCC 25922) was 0.2 µg/mL (≈ 0.555 µM), the MIC90 ([8]; ATCC25922, ATCC 25922) was 3.3 µg/mL (≈ 9.15 µM) and the MIC50 ([8]; ATCC25922, ATCC25922, Table 7) was 0.2 ± 0.024 µg/mL (≈ 0.555 µM). The MIC50 [8, 13] was 8 µg/mL (≈ 22.2 µM), the MIC90 [8, 13] was 26.6 µg/mL (≈ 73.8 µM) and the MIC50 [9] was 34.4 µg/mL (≈ 95.5 µM). It also gave an MIC90 [9] of 124 µg/mL (≈ 344 µM), an MIC50 (Enterococcus sp. (2105)) of 28.4 µg/mL (≈ 78.8 µM) and an MIC90 (Enterococcus sp. (2105)) of 128 µg/mL (≈ 355 µM). For the same compound, the FICI (P. aeruginosa (MTCC1688); [14]) was 0.6, the Interpretation (P. aeruginosa (MTCC1688); [14]) was “Synergy (FICI of ≤0.5 will correspond to synergy)” and the FICI (P. aeruginosa (MTCC1688); P. aeruginosa (MTCC1688), HN12b + PAβN) was 1. The MIC90 (P. aeruginosa (MTCC1688); Pseudomonas aeruginosa, MTCC1688) was greater than 128 µg/mL.
